Data from the NIST ThermoML archive (doi:10.1016/j.fluid.2007.06.001).

Test: excess molar enthalpy (molar enthalpy of mixing); xn = mol fraction of the nth substance listed
Settings: Liquid

CCCC[n+]1ccn(C)c1.O=S(=O)([N-]S(=O)(=O)C(F)(F)F)C(F)(F)F + CC1CCCCC1
363.15 K, 101.3 kPa
Settings | excess molar enthalpy [kcal/mol]
x2 = 0.1067 | 0.111
x2 = 0.2014 | 0.148
x2 = 0.2449 | 0.143
x2 = 0.286 | 0.137
x2 = 0.3621 | 0.123
x2 = 0.4308 | 0.111
x2 = 0.4932 | 0.099
x2 = 0.6022 | 0.0773
x2 = 0.6942 | 0.0587
x2 = 0.773 | 0.0439
x2 = 0.872 | 0.0258

CCCCCC[n+]1ccn(C)c1.O=S(=O)([N-]S(=O)(=O)C(F)(F)F)C(F)(F)F + CC(C)=O
353.15 K, 101 kPa
Settings | excess molar enthalpy [kcal/mol]
x2 = 0.02 | -0.0107
x2 = 0.0499 | -0.0253
x2 = 0.0999 | -0.0512
x2 = 0.1498 | -0.0795
x2 = 0.1998 | -0.106
x2 = 0.2997 | -0.158
x2 = 0.3996 | -0.202
x2 = 0.4996 | -0.239
x2 = 0.5996 | -0.26
x2 = 0.6997 | -0.268
x2 = 0.7998 | -0.25
x2 = 0.8999 | -0.182
x2 = 0.9499 | -0.117

CCCC[n+]1ccn(C)c1.O=S(=O)([N-]S(=O)(=O)C(F)(F)F)C(F)(F)F + CC(C)=O
353.15 K, 101 kPa
Settings | excess molar enthalpy [kcal/mol]
x2 = 0.05 | -0.031
x2 = 0.0999 | -0.0608
x2 = 0.1499 | -0.092
x2 = 0.1999 | -0.122
x2 = 0.2998 | -0.175
x2 = 0.4498 | -0.248
x2 = 0.5998 | -0.291
x2 = 0.6998 | -0.296
x2 = 0.7999 | -0.265
x2 = 0.8499 | -0.235
x2 = 0.8999 | -0.186
x2 = 0.95 | -0.118

CCCCCC[n+]1ccn(C)c1.O=S(=O)([N-]S(=O)(=O)C(F)(F)F)C(F)(F)F + CCC(C)=O
353.15 K, 101 kPa
Settings | excess molar enthalpy [kcal/mol]
x2 = 0.02 | -0.0125
x2 = 0.05 | -0.0296
x2 = 0.1 | -0.0578
x2 = 0.15 | -0.0902
x2 = 0.2001 | -0.12
x2 = 0.3001 | -0.17
x2 = 0.4001 | -0.215
x2 = 0.5001 | -0.25
x2 = 0.6001 | -0.274
x2 = 0.7001 | -0.278
x2 = 0.8001 | -0.255
x2 = 0.9 | -0.181
x2 = 0.95 | -0.114
